Columns and labels:
[1] = system: Nav1.4 and 1.5; format: cell-based, rat
[2] = molecular target: Nav1.2 (Rattus norvegicus, UniProt P04775)
[3] = molecular target: NaV1.8 (Homo sapiens, UniProt Q9Y5Y9); format: cell-based
[4] = system: Nav1.4; format: cell-based, Chinese Hamster
[5] = system: peripheral nerve injury; conditions: intravenous; concentrations that do not affect general behaviour and motor function; cited from earlier work

Nav1.2, sequence (P04775 whole entry, looked up): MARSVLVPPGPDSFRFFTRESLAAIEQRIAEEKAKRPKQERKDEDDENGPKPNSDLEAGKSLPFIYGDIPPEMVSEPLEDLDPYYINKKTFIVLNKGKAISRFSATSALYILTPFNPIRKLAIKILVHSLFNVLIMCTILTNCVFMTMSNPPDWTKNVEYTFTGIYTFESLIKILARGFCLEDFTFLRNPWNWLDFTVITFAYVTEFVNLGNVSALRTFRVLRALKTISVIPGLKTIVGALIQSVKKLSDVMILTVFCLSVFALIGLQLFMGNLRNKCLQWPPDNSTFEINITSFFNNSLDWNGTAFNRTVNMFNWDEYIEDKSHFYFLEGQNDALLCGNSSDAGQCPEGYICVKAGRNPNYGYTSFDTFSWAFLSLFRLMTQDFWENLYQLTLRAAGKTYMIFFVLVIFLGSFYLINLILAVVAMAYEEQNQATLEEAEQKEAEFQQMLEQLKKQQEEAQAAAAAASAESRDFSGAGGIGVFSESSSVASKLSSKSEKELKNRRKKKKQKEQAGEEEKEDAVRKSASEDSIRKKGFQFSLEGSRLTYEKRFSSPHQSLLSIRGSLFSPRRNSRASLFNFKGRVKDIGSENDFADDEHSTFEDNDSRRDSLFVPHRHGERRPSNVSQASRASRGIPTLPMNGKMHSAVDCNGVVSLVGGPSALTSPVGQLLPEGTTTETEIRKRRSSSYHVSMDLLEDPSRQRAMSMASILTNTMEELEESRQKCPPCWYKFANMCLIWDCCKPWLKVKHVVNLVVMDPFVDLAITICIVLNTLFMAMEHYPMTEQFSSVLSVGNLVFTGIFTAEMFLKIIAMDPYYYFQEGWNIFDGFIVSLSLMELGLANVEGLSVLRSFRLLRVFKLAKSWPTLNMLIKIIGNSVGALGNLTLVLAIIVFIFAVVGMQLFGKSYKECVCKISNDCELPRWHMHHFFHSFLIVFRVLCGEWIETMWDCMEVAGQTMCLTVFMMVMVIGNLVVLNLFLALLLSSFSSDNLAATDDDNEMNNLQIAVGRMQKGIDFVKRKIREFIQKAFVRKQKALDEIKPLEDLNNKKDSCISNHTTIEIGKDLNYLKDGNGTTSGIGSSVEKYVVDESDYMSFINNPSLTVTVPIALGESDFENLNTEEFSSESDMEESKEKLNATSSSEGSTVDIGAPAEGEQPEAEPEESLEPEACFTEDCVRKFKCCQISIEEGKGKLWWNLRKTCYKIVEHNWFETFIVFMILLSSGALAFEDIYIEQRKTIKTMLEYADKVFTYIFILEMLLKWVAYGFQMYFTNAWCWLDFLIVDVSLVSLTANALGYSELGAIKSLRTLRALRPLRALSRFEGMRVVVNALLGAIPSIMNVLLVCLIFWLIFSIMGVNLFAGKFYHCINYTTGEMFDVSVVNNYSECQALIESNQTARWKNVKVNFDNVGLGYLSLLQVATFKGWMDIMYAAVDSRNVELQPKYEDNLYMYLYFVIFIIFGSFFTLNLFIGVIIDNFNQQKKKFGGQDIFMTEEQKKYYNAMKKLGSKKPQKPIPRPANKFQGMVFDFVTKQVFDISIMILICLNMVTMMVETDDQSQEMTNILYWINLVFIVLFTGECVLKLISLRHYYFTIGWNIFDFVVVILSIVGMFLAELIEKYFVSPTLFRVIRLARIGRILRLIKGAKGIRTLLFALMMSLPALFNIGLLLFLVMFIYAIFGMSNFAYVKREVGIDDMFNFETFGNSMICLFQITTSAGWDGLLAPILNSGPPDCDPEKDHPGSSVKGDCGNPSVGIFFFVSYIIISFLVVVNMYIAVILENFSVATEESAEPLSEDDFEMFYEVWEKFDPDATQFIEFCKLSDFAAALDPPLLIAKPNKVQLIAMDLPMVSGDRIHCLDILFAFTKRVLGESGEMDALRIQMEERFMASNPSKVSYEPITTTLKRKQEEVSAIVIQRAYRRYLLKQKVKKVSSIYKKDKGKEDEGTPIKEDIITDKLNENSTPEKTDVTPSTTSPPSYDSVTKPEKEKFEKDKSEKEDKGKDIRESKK
NaV1.8, sequence (Q9Y5Y9 whole entry, looked up): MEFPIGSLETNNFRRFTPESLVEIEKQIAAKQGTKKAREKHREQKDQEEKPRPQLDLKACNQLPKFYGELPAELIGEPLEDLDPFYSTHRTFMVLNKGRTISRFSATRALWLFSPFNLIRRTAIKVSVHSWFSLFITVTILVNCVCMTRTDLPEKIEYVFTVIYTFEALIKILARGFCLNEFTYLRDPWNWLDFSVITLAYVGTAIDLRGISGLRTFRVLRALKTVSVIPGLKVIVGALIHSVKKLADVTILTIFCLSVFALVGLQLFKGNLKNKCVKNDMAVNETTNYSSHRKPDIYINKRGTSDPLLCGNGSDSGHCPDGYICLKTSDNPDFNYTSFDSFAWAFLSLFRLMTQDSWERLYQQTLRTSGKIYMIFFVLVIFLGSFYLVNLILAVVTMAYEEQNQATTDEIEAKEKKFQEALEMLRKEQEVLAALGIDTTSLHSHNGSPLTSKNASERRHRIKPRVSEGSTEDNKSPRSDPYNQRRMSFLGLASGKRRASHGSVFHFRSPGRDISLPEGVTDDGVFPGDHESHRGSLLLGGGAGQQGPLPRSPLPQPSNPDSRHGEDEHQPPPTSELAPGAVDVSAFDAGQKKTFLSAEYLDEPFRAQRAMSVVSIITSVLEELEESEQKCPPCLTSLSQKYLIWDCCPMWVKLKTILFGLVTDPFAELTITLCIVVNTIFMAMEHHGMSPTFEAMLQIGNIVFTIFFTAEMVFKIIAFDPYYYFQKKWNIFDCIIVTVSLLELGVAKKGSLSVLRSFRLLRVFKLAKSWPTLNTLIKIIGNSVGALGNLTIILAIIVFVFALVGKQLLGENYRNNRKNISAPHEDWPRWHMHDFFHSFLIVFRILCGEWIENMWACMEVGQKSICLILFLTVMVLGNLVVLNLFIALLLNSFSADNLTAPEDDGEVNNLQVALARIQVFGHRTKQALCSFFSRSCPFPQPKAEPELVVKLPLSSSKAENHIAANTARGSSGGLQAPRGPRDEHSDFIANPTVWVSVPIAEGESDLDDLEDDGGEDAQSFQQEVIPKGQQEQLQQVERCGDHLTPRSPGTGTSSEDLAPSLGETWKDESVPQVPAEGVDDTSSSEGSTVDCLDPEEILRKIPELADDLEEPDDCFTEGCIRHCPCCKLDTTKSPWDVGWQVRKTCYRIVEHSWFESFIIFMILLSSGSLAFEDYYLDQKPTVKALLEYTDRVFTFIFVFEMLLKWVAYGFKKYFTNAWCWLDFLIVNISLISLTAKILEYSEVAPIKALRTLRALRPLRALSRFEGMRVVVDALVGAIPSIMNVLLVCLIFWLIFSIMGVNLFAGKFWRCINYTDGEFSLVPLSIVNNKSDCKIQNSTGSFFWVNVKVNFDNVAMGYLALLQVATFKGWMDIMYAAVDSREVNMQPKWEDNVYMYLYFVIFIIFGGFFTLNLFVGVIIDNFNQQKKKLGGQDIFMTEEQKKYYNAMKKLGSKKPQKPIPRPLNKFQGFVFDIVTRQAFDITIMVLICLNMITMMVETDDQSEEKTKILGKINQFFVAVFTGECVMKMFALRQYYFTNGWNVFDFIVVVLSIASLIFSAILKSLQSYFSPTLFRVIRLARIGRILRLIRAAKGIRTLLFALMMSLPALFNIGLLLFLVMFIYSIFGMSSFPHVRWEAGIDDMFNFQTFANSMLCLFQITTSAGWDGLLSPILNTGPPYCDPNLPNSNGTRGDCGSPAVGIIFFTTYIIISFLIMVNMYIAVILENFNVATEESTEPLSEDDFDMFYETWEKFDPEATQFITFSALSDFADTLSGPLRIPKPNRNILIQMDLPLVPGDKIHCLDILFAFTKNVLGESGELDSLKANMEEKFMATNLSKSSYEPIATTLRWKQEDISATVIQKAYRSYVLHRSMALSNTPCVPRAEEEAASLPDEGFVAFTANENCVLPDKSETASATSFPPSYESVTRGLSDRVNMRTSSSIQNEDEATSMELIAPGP

Molecule O=C(CC1(O)C(=O)N(CCc2ccc(Cl)cc2)c2ccccc21)c1ccco1 (centres unmarked) has a melting point of 128 to 132 °C.
For CCCCCN1C(=O)C(c2ccc3c(c2)OCO3)c2c(Cl)ccc(Cl)c21 (centres unmarked), the melting point was 84 to 86 °C.
In the case of CCCCCN1C(=O)C(c2ccc3c(c2)OCO3)c2cccc(F)c21 (centres unmarked), the melting point is reported as 95 to 97 °C.
With O=C1C(c2ccc3c(c2)OCO3)c2ccccc2N1Cc1ccc(Cl)cc1 (centres unmarked) the melting point was 161 to 163 °C.
CCCCCN1C(=O)C(c2ccc3c(c2)OCO3)c2cc(C)cc(C)c21 (centres unmarked) gave a melting point of 111 to 114 °C.
Molecule O=C1C(c2ccc3c(c2)OCO3)c2ccccc2N1CCC1CC1 (centres unmarked) has a melting point of 87 to 89 °C.
CCCCCN1C(=O)C(c2cc3c(cc2O)OCO3)c2ccccc21 (centres unmarked) showed a melting point of 101 to 103 °C.
For O=C(CC1(O)C(=O)N(Cc2ccc(Cl)cc2)c2ccccc21)c1ccc[nH]1 (centres unmarked), the melting point was 202 °C (dec.).
Molecule CCCCCN1C(=O)C(c2ccc3c(c2)OCO3)(c2cc3c(cc2O)OCO3)c2ccccc21 (centres unmarked) has a melting point of 75 to 76 °C.
CCCCCN1C(=O)C(NC(=O)OC(C)(C)C)c2ccccc21 (centres unmarked) gave a melting point of 145 to 147 °C.
Molecule CCCCCN1C(=O)C(N)(CC(=O)c2cccs2)c2ccccc21 (centres unmarked) has a melting point of 167 to 169 °C.
In the case of CCCCCN1C(=O)C(CO)(c2cc3c(cc2O)OCO3)c2ccccc21 (centres unmarked), the melting point is reported as 125 to 127 °C.
For Cc1ccc2c(c1)C(O)(CC(=O)c1ccco1)C(=O)N2Cc1ccc(Cl)cc1 (centres unmarked), the melting point was 183 to 185 °C.
In the case of O=C(CC1(O)C(=O)N(Cc2ccc(Cl)cc2)c2ccccc21)c1cc2ccccc2o1 (centres unmarked), the melting point is reported as 185 °C (dec.).
O=C(CC1(O)C(=O)N(Cc2ccc3c(c2)OCO3)c2ccccc21)c1ccco1 (centres unmarked) showed a melting point of 175 to 177 °C.
With O=C(CC1(O)C(=O)N(Cc2ccc3c(c2)OCO3)c2ccccc21)c1cccs1 (centres unmarked) the melting point was 186 to 187 °C.
Molecule O=C1N(CC2CC2)c2ccccc2C1(O)c1ccc2c(c1)OCO2 (centres unmarked) has a melting point of 142 to 145 °C.
O=C1N(Cc2ccccn2)c2cccc(Br)c2C1(O)c1cc2c(cc1O)OCC2 (centres unmarked) showed a melting point of over 225 °C.
With CC(c1ccccc1)N1C(=O)C(O)(c2ccc3c(c2)OCO3)c2ccccc21 (centres unmarked) the melting point was 148 to 150 °C.
Molecule O=C1N(Cc2ccc(C(F)(F)F)o2)c2ccc(F)cc2C1(CO)c1cc2c(cc1O)OCO2 (centres unmarked) has a melting point of 92 to 95 °C.
Work on O=C1N(Cc2ccc(Cl)cc2)c2ccc(OC(F)(F)F)cc2C1(O)c1ccc2c(c1)OCO2 (centres unmarked) yielded a melting point of 138 to 140 °C.
For O=C1N(Cc2ccc(-n3cccc3)cc2)c2ccccc2C1(O)c1ccc2c(c1)OCO2 (centres unmarked), the melting point was 195 to 198 °C.
CCCCCN1C(=O)C(O)(c2ccc3c(c2)OCO3)c2cccc(-c3ccc(F)cc3)c21 (centres unmarked) showed a melting point of 149 to 151 °C.
Work on O=C1N(CCCC(F)(F)F)c2ccccc2C1(O)c1ccc2c(c1)OCO2 (centres unmarked) yielded a melting point of 119 to 121 °C.
Molecule O=C1N(Cc2ccc(Cl)cc2)c2ccccc2C1(O)c1cc(OCc2ccccc2)ccc1O (centres unmarked) has a melting point of 172 to 175 °C.
O=C1N(CCCCCCl)c2ccccc2C1(O)c1ccc2c(c1)OCO2 (centres unmarked) showed a melting point of 131 to 132 °C.
Molecule O=C1Nc2c(-c3ccc4c(c3)OCO4)cccc2C1(O)c1ccc2c(c1)OCO2 (centres unmarked) has a melting point of 112 to 115 °C.
O=C(CC1(O)C(=O)N(Cc2ccc(Cl)cc2)c2ccccc21)c1ccc(F)cc1 (centres unmarked) showed a melting point of 156 to 160 °C.
Molecule CCCCCN1C(=O)C(O)(c2ccc3c(c2)OCO3)c2cc(C)cc(C)c21 (centres unmarked) has a melting point of 120 to 121 °C.
In the case of CCCCC(C)N1C(=O)C(O)(c2ccc3c(c2)OCO3)c2ccccc21 (centres unmarked), the melting point is reported as 152 to 154 °C.
With O=C1N(Cc2ccc(Cl)cc2)c2ccc(Br)cc2C1(O)c1ccc2c(c1)OCO2 (centres unmarked) the melting point was 179 to 180 °C.
For O=C1N(Cc2ccc(Cl)cc2)c2ccc(F)cc2C1(O)c1ccc2c(c1)OCO2 (centres unmarked), the melting point was 145 to 147 °C.
Work on O=C1N(Cc2ccc(Cl)cc2)c2ccccc2C1(O)CC1OCCO1 (centres unmarked) yielded a melting point of 166 to 169 °C.
For O=C(CC1(O)C(=O)N(Cc2ccc(Cl)cc2)c2ccccc21)c1ccccn1 (centres unmarked), the melting point was 185 °C (dec.).
Molecule O=C(c1ccc(Cl)cc1)N1C(=O)C(O)(c2ccccc2)c2ccccc21 (centres unmarked) has a melting point of 141 to 143 °C.
Molecule CCCCCN1C(=O)C(O)(c2ccc3c(c2)OCO3)c2cccc(F)c21 (centres unmarked) has a melting point of 102 to 104 °C.
O=C1N(Cc2cc3c(cc2Cl)OCO3)c2ccccc2C1(O)c1ccc2c(c1)OCO2 (centres unmarked) showed a melting point of 153 to 155 °C.
O=C1N(Cc2cccs2)c2ccccc2C1(O)c1ccc2c(c1)OCO2 (centres unmarked) showed a melting point of 141 to 142 °C.
Molecule COc1ccccc1CN1C(=O)C(O)(c2ccc3c(c2)OCO3)c2ccccc21 (centres unmarked) has a melting point of 148 to 150 °C.
Molecule O=C1N(Cc2cccc3ccccc23)c2ccccc2C1(O)c1ccc2c(c1)OCO2 (centres unmarked) has a melting point of 93 to 95 °C.
Work on O=C1N(Cc2cccc(C(F)(F)F)c2)c2ccccc2C1(O)c1ccc2c(c1)OCO2 (centres unmarked) yielded a melting point of 133 to 135 °C.
In the case of COc1ccc2c(c1)C(O)(c1ccc3c(c1)OCO3)C(=O)N2Cc1ccc(F)cc1 (centres unmarked), the melting point is reported as 127 to 129 °C.
O=C1N(Cc2ccc(Cl)c(C(F)(F)F)c2)c2ccccc2C1(O)c1ccc2c(c1)OCO2 (centres unmarked) showed a melting point of 133 to 135 °C.
With O=C1N(Cc2ccc(Cl)s2)c2ccccc2C1(O)c1ccc2c(c1)OCO2 (centres unmarked) the melting point was 164 to 165 °C.
CC(C)CCN1C(=O)C(O)(c2ccc3c(c2)OCO3)c2ccccc21 (centres unmarked) gave a melting point of 129 to 131 °C.
CCCCCCN1C(=O)C(O)(c2ccc3c(c2)OCO3)c2ccccc21 (centres unmarked) showed a melting point of 88 to 90 °C.
O=C1N(Cc2cccc3cccnc23)c2ccccc2C1(O)c1ccc2c(c1)OCO2 (centres unmarked) gave a melting point of 187 to 189 °C.
Molecule CCCCCC1(O)C(=O)N(c2ccc3c(c2)OCO3)c2ccccc21 (centres unmarked) has a melting point of 88 to 90 °C.
Work on CCCCCN1C(=O)C(O)(c2ccc3c(c2)OCO3)c2c(Cl)ccc(Cl)c21 (centres unmarked) yielded a melting point of 82 to 84 °C.
For O=C1N(CCC2CC2)c2ccccc2C1(O)c1ccc2c(c1)OCO2 (centres unmarked), the melting point was 110 to 112 °C.
Molecule CCCCCN1C(=O)C(O)(c2ccc3c(c2)OCO3)c2ccc(Cl)cc21 (centres unmarked) has a melting point of 103 to 105 °C.
CCCCCN1C(=O)C(O)(c2ccc3c(c2)OCO3)c2cccc(C(F)(F)F)c21 (centres unmarked) gave a melting point of 115 to 117 °C.
In the case of O=C1N(Cc2ccccc2I)c2ccccc2C1(O)c1ccc2c(c1)OCO2 (centres unmarked), the melting point is reported as 130 to 132 °C.
For O=C(CC1(O)C(=O)N(c2ccc(F)cc2)c2ccccc21)c1ccco1 (centres unmarked), the melting point was 185 °C (dec.).
COc1ccc(C2(O)C(=O)N(Cc3ccc(Cl)cc3)c3ccccc32)cc1OC (centres unmarked) gave a melting point of 155 to 158 °C.
Molecule CCCCCN1C(=O)C(O)(c2ccc3c(c2)OCO3)c2c(Cl)cccc21 (centres unmarked) has a melting point of 140 to 142 °C.
Work on COc1ccc(C2(O)C(=O)N(Cc3ccc(Cl)cc3)c3ccccc32)cn1 (centres unmarked) yielded a melting point of 182 to 184 °C.
O=C1N(Cc2ccc(Cl)cc2)c2ccccc2C1(O)c1ccc2c(c1)OCCCO2 (centres unmarked) showed a melting point of 188 to 190 °C.
Molecule O=C1N(Cc2ccc(Cl)cc2)c2ccccc2C1(O)c1cncnc1 (centres unmarked) has a melting point of 155 to 157 °C.
Molecule O=C1N(Cc2ccc(Cl)cc2)c2ccccc2C1(O)c1ccc2ncsc2c1 (centres unmarked) has a melting point of 185 to 187 °C.
Molecule O=C1c2ccccc2CC1C1(O)C(=O)N(Cc2ccc(Cl)cc2)c2ccccc21 (centres unmarked) has a melting point of 154 to 157 °C.
For O=C1N(Cc2ccc3c(c2)OCO3)c2ccccc2C1(O)c1ccc2ccoc2c1 (centres unmarked), the melting point was over 200 °C.
For O=C1N(Cc2ccc(Cl)cc2)c2ccccc2C1(O)c1ccc2ccoc2c1 (centres unmarked), the melting point was > 200 °C (dec.).
Molecule CCCCCN1C(=O)C(O)(c2ccc3ocnc3c2)c2ccccc21 (centres unmarked) has a melting point of 189 to 191 °C.
For O=C1N(Cc2ccc(Cl)cc2)c2ccccc2C1(O)c1ccc2c(c1)OC(F)(F)O2 (centres unmarked), the melting point was 150 to 152 °C.
Work on COc1ccc(CN2C(=O)C(O)(c3ccc4c(c3)OC(F)(F)O4)c3ccccc32)cc1 (centres unmarked) yielded a melting point of 88 to 90 °C.
CCCCCN1C(=O)C(O)(c2cc3c(cc2CO)OCO3)c2ccccc21 (centres unmarked) gave a melting point of 120 to 122 °C.
In the case of O=C1N(Cc2ccc(Cl)cc2)c2ccccc2C1(O)C#Cc1ccc(F)cc1 (centres unmarked), the melting point is reported as 153 to 154 °C.
In the case of NC1=N[C@H](O)[C@H]2[C@H]3O[C@]4(O)O[C@@H]([C@@H](O)[C@@]2(N1)[C@@H]4O)[C@]3(O)CO [TTX, tetrodotoxin], the “block of [14C] Guanidine influx by TTX” value [1] is reported as “partially blocked by TTX (Nav1.5”, the “block of [14C] Guanidine influx by TTX” value [2] is reported as “Guanidine influx was completely” and the “block of [14C] Guanidine influx by TTX” value [3] is reported as “TTX partially blocked influx”. The “block of [14C] Guanidine influx by TTX” value [4] was “Guanidine influx was completely”.
In the case of CCN(CC)CC(=O)Nc1c(C)cccc1C [lidocaine], the “effect on ectopic activity in the injured nerve” value [5] is listed as “suppress the ectopic activity” and the “effect on tactile allodynia” value [5] is listed as “reverse the tactile allodynia”.
